Results: US20220112479A1, “COMPOUNDS STABILIZING AMYLASES IN LIQUIDS” (BASF SE, priority 2018, published 2022)

How the values were obtained:
[1] = biological target: T1, Savinase Ultra 16.0L (Lederbergia lenta, UniProt P29600); experiment: protease storage stability in liquid formulation (Suc-AAPF-pNA substrate); format: biochemical; details: storage at 37° C.
T1 construct: purchased Sigma-Aldrich
T1 sequence (P29600 1-269): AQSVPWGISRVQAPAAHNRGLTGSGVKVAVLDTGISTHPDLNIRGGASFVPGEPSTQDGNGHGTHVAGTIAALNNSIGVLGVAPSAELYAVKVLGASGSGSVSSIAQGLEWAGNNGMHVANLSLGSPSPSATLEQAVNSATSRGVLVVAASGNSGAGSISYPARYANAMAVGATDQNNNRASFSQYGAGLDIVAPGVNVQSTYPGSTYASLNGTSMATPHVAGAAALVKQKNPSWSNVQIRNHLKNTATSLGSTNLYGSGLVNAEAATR
Protocol: (§1) Base test formulations were manufactured by making base formulations I to V by mixing the components according to Table 1.
Protease used: (S) Savinase Ultra 16.0L (CAS-No. 9014-01-1, EC-No. 232-752-2) was purchased from Sigma-Aldrich
(§2) The respective component (a) or comparative compound was added, if applicable, to the respective base formulation in amounts as indicated in Table 1.
The amount of protease as provided in Table 1 refers to active protein.
(§3) Water was added to accomplish the balance to 100.
Protease activity at certain points in time as indicated in Table 3 was be determined by employing Succinyl-Ala-Ala-Pro-Phe-p-nitroanilide (Suc-AAPF-pNA, short AAPF) as substrate. pNA is cleaved from the substrate molecule by proteolytic cleavage, resulting in release of yellow color of free pNA which was determined by measuring […]. Measurements were done at 20° C.
The proteolytic activity values provided in Table 3 were calculated referring to the value determined in the reference formulation at the time 0.
The nomenclature of formulations is as follows: the Roman number before the full stop characterizes the base formulation, the Arabian number the type of salt (A.#inventive salt (component (a)); B.# comparative compound). Zero (“0”): no salt, but diethylene glycol.

[2] = system: Amy3=Stainzyme Plus L (12L); experiment: amylase storage stability in liquid formulation (pNP release from Ethyliden-blocked-pNPG7); format: biochemical; details: base formulation II., 1.5 wt % component (a), storage at 37° C.
Protocol: The storage stability of amylase was assessed at 37° C.
as §1
Amylases used: Amy1=Stainzyme, Amy2=Amplify, Amy3=Stainzyme Plus L (12L)
as §2
The amount of amylase as provided in Table 1 refers to active protein.
as §3
Amylase activity at certain points in time as indicated in Table 2 was measured quantitatively by the release of the chromophore para-nitrophenol (pNP) from the substrate (Ethyliden-blocked-pNPG7, Roche Applied Science 10880078103). The alpha-amylase degrades the substrate into smaller molecules and α-glucosidase (Roche Applied Science 11626329103), which is present in excess compared to the amylase, process these smaller products until pNP is released; the release of pNP, measured via an increase of absorption at 405 nm, is directly proportional to the amylase activity of the sample. Amylase standard: Termamyl 120 L (Sigma 3403).
The amylolytic activity values provided were calculated referring to the value determined in the reference formulation at the time 0.
The nomenclature of formulations is as follows: the Roman number before the full stop characterizes the base formulation, the Arabian number the type of compound (A.# compound according to invention (component (a)); B.# comparative compound).

[3] = base formulation I., 1.5 wt % component (a), 3 d
[4] = base formulation I., 1.5 wt % component (a), 7 d
[5] = base formulation I., 1.5 wt % component (a), 14 d
[6] = base formulation I., 1.5 wt % component (a), 21 d
[7] = base formulation I., 1.5 wt % component (a), 28 d
[8] = base formulation I., 1.5 wt % component (a), 42 d
[9] = base formulation I., 1.5 wt % component (a), T0
[10] = base formulation III., 1.5 wt % component (a), 3 d
[11] = base formulation III., 1.5 wt % component (a), 7 d
[12] = base formulation III., 1.5 wt % component (a), 14 d
[13] = base formulation III., 1.5 wt % component (a), 21 d
[14] = base formulation III., 1.5 wt % component (a), 28 d
[15] = base formulation III., 1.5 wt % component (a), 42 d
[16] = base formulation III., 1.5 wt % component (a), T0

## CCOC(=O)CC(O)(CC(=O)OCC)C(=O)OCC [A.1, Triethylcitrate]
[1]; [3]
  protease activity, referring to reference formulation at time 0: 97
[1]; [4]
  protease activity, referring to reference formulation at time 0: 94
[1]; [5]
  protease activity, referring to reference formulation at time 0: 89
[1]; [6]
  protease activity, referring to reference formulation at time 0: 83
[1]; [7]
  protease activity, referring to reference formulation at time 0: 79
[1]; [8]
  protease activity, referring to reference formulation at time 0: 67
[1]; [9]
  protease activity, referring to reference formulation at time 0: 100
[1]; base formulation II., 1.5 wt % component (a), 3 d
  protease activity, referring to reference formulation at time 0: 99
[1]; base formulation II., 1.5 wt % component (a), 7 d
  protease activity, referring to reference formulation at time 0: 96
[1]; base formulation II., 1.5 wt % component (a), 14 d
  protease activity, referring to reference formulation at time 0: 90
[1]; base formulation II., 1.5 wt % component (a), 21 d
  protease activity, referring to reference formulation at time 0: 85
[1]; base formulation II., 1.5 wt % component (a), 28 d
  protease activity, referring to reference formulation at time 0: 80
[1]; base formulation II., 1.5 wt % component (a), 42 d
  protease activity, referring to reference formulation at time 0: 69
[1]; base formulation II., 1.5 wt % component (a), T0
  protease activity, referring to reference formulation at time 0: 100
[1]; [10]
  protease activity, referring to reference formulation at time 0: 99
[1]; [11]
  protease activity, referring to reference formulation at time 0: 93
[1]; [12]
  protease activity, referring to reference formulation at time 0: 88
[1]; [13]
  protease activity, referring to reference formulation at time 0: 85
[1]; [14]
  protease activity, referring to reference formulation at time 0: 74
[1]; [15]
  protease activity, referring to reference formulation at time 0: 67
[1]; [16]
  protease activity, referring to reference formulation at time 0: 100
[1]; base formulation IV., 2.0 wt % component (a), 3 d
  protease activity, referring to reference formulation at time 0: 96
[1]; base formulation IV., 2.0 wt % component (a), 7 d
  protease activity, referring to reference formulation at time 0: 92
[1]; base formulation IV., 2.0 wt % component (a), 14 d
  protease activity, referring to reference formulation at time 0: 86
[1]; base formulation IV., 2.0 wt % component (a), 21 d
  protease activity, referring to reference formulation at time 0: 80
[1]; base formulation IV., 2.0 wt % component (a), 28 d
  protease activity, referring to reference formulation at time 0: 72
[1]; base formulation IV., 2.0 wt % component (a), 42 d
  protease activity, referring to reference formulation at time 0: 65
[1]; base formulation IV., 2.0 wt % component (a), T0
  protease activity, referring to reference formulation at time 0: 98
[1]; base formulation V., 2.0 wt % component (a), 3 d
  protease activity, referring to reference formulation at time 0: 94
[1]; base formulation V., 2.0 wt % component (a), 7 d
  protease activity, referring to reference formulation at time 0: 90
[1]; base formulation V., 2.0 wt % component (a), 14 d
  protease activity, referring to reference formulation at time 0: 85
[1]; base formulation V., 2.0 wt % component (a), 21 d
  protease activity, referring to reference formulation at time 0: 81
[1]; base formulation V., 2.0 wt % component (a), 28 d
  protease activity, referring to reference formulation at time 0: 75
[1]; base formulation V., 2.0 wt % component (a), 42 d
  protease activity, referring to reference formulation at time 0: 65
[1]; base formulation V., 2.0 wt % component (a), T0
  protease activity, referring to reference formulation at time 0: 99
[2]; 3 d
  amylase activity, referring to reference formulation at time 0: 100
[2]; 7 d
  amylase activity, referring to reference formulation at time 0: 94
[2]; 14 d
  amylase activity, referring to reference formulation at time 0: 90
[2]; 21 d
  amylase activity, referring to reference formulation at time 0: 84
[2]; 28 d
  amylase activity, referring to reference formulation at time 0: 77
[2]; 42 d
  amylase activity, referring to reference formulation at time 0: 65
[2]; T0
  amylase activity, referring to reference formulation at time 0: 100

## CCOC(=O)CC(CC(=O)OCC)(OC(C)=O)C(=O)OCC [A.5, Acetyltriethylcitrate]
[1]; [3]
  protease activity, referring to reference formulation at time 0: 96
[1]; [4]
  protease activity, referring to reference formulation at time 0: 90
[1]; [5]
  protease activity, referring to reference formulation at time 0: 84
[1]; [6]
  protease activity, referring to reference formulation at time 0: 80
[1]; [7]
  protease activity, referring to reference formulation at time 0: 76
[1]; [8]
  protease activity, referring to reference formulation at time 0: 62
[1]; [9]
  protease activity, referring to reference formulation at time 0: 98
[1]; [10]
  protease activity, referring to reference formulation at time 0: 98
[1]; [11]
  protease activity, referring to reference formulation at time 0: 92
[1]; [12]
  protease activity, referring to reference formulation at time 0: 83
[1]; [13]
  protease activity, referring to reference formulation at time 0: 79
[1]; [14]
  protease activity, referring to reference formulation at time 0: 71
[1]; [15]
  protease activity, referring to reference formulation at time 0: 65
[1]; [16]
  protease activity, referring to reference formulation at time 0: 100
